In this assay the target is T1, Human M4 receptors (Homo sapiens, UniProt P08173).
T1 construct: expressed in transfected cells; host or cells: HEK293 cells with Promega GloSensor cAMP technology, stably expressing hM4
T1 sequence (P08173 1-479): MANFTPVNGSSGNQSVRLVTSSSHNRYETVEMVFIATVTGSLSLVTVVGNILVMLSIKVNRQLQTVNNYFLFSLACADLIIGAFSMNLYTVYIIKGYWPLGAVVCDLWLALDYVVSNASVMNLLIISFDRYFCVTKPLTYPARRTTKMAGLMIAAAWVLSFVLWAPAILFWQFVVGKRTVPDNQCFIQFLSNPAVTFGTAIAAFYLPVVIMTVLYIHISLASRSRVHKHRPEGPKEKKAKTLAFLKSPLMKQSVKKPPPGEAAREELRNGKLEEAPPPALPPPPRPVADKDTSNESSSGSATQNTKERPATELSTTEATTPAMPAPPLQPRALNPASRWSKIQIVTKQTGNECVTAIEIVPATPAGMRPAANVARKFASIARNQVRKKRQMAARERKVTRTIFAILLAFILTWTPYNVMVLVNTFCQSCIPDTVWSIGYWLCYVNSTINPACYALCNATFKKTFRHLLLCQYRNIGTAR
Briefly: M4 PAM cAMP assay (GloSensor). The class given is cell-based. Particulars: for Emax: HEK293, read-out: M4 glosensor EC50 Mean Asymptote Maximum (%); for pEC50: HEK293 GloSensor cells expressing hM4, with EC20 acetylcholine and isoproterenol, geometric mean of 2-4 determinations unless otherwise indicated. The procedure: The M4 PAM binding affinity for the compounds of the present invention was determined utilizing the following biological assay(s):
The M4 cAMP assay was designed to determine the potency and efficacy of muscarinic positive allosteric modulators (PAMs). Human M4 receptors were stably expressed in Human embryonic kidney (HEK293) cells expressed with the Promega GloSensor™ cAMP technology.
HEK293 GloSensor cells expressing hM4 cells were cultured in growth media containing DMEM with 10% FBS, 1% Penicillin/Streptomycin, 500 μg/mL G418, 200 μg/mL Hygomycin B, and 1% Glutamax. […] Plates were incubated at 37 degrees C. and 5% CO2 for use after 24 hours.
Compound Preparation for Agonist Screen:
Each compound was tested at 10 concentrations in duplicate per experiment. Compound plates are spotted with 0.2 μL/well agonist at 400 times the final assay concentration. Positive and negative controls for the compound alone agonist response was 10 μM acetylcholine (Sigma #A2661) and DMSO, respectively. EC20 of acetylcholine was also used to define PAM activities.
Promega GloSensor™ reagent (Promega #E1291) had previously been aliquotted. […] Stock solution was mixed. Culture media in cell plates was discarded, then replaced with 40 μL/well pre-warmed equilibration media, then incubated in the dark at room temperature for 2 hours. During the incubation, stimulation media containing agonist and EC20 acetylcholine was prepared. […] Compounds are now 5 times the final assay concentration. The plate was mixed using a plate agitator. At the end of the 2 hour GloSensor™ incubation, add 10 μL of the CO2-independent media containing agonist, EC20 acetylcholine and isoproterenol to the cell plate. Cell plate was then incubated for 10 minutes at room temperature, and then read using an EnVision plate reader (Perkin Elmer).
Data was exported from the EnVision plate reader. The percent effect for each well was determined using the mean values for the positive and negative controls on each plate for each read, specifically 100*(compound−negative control)/(positive control−negative control). Dose response curves were fitted to the compound percent effect data using a 4-parameter logistic fit model. Data was reported as EC50 and Emax, with the Emax as the maximum asymptote of the fitted dose response curve.
In general terms: Changes in cAMP serve as a functional read-out for many G protein-coupled receptors.

pEC50: −log10 of the molar value.

A word on the pEC50: it is the negative decadic logarithm of the EC50, by convention in mol/L.

`Cc1cc(C(F)F)nc2c1CN(C(=O)CC1CN(c3ccnc(OC(F)F)c3)C1)C2` [Example 25, 2-{1-[2-(difluoromethoxy)pyridin-4-yl]azetidin-3-yl}-1-[2-(difluoromethyl)-4-methyl-5,7-dihydro-6H-pyrrolo[3,4-b]pyridin-6-yl]ethanone]: the Emax is 78.7% and the pEC50 was 7.59.

As to `COc1nc2c(c(C)c1Cl)CN(C(=O)CC1CN(c3cncnc3)C1)C2` [Example 26, 1-(3-chloro-2-methoxy-4-methyl-5,7-dihydro-6H-pyrrolo[3,4-b]pyridin-6-yl)-2-[1-(pyrimidin-5-yl)azetidin-3-yl]ethanone], the Emax came out at 117% and the pEC50 is 7.86.

For `COCc1cc(C)c2c(n1)CN(C(=O)CC1CN(c3cccnc3)C1)C2` [Example 27, 1-[2-(methoxymethyl)-4-methyl-5,7-dihydro-6H-pyrrolo[3,4-b]pyridin-6-yl]-2-[1-(pyridin-3-yl)azetidin-3-yl]ethanone], the Emax came out at 94.4% and the pEC50 was 7.77.

As for `COc1nc2c(c(C)c1C)CN(C(=O)CC1CN(c3cccnc3)C1)C2` [Example 28, 1-(2-methoxy-3,4-dimethyl-5,7-dihydro-6H-pyrrolo[3,4-b]pyridin-6-yl)-2-[1-(pyridin-3-yl)azetidin-3-yl]ethanone], the Emax is 116% and the pEC50 is 7.67.

Turning to `COc1nc2c(c(C)c1C)CN(C(=O)CC1CN(c3cncnc3)C1)C2` [Example 29, 1-(2-methoxy-3,4-dimethyl-5,7-dihydro-6H-pyrrolo[3,4-b]pyridin-6-yl)-2-[1-(pyrimidin-5-yl)azetidin-3-yl]ethanone], the Emax stood at 99.8% and the pEC50 is 7.58.

Turning to `Cc1cc(C)c2c(n1)CN(C(=O)CC1CN(c3ccnnc3)C1)C2` [Example 30, 1-(2,4-dimethyl-5,7-dihydro-6H-pyrrolo[3,4-b]pyridin-6-yl)-2-[1-(pyridazin-4-yl)azetidin-3-yl]ethanone], the Emax turned out to be 103% and the pEC50 is 7.52.

For `COCc1cc(C)c2c(n1)CN(C(=O)CC1CN(c3cncnc3)C1)C2` [Example 31, 1-[2-(methoxymethyl)-4-methyl-5,7-dihydro-6H-pyrrolo[3,4-b]pyridin-6-yl]-2-[1-(pyrimidin-5-yl)azetidin-3-yl]ethanone], the Emax was 89.3% and the pEC50 is 7.75.

For `Cc1c(Cl)c(OC(F)F)nc2c1CN(C(=O)CC1CN(c3cncnc3)C1)C2` [Example 32, 1-[3-chloro-2-(difluoromethoxy)-4-methyl-5,7-dihydro-6H-pyrrolo[3,4-b]pyridin-6-yl]-2-[1-(pyrimidin-5-yl)azetidin-3-yl]ethanone], the Emax came to 109% and the pEC50 is 7.96.

As to `Cc1cc(CO)nc2c1CN(C(=O)CC1CN(c3ccnc(C(F)(F)F)c3)C1)C2` [Example 33, 1-[2-(hydroxymethyl)-4-methyl-5,7-dihydro-6H-pyrrolo[3,4-b]pyridin-6-yl]-2-{1-[2-(trifluoromethyl)pyridin-4-yl]azetidin-3-yl}ethanone], the Emax was determined as 100% and the pEC50 is 7.85.

As for `Cc1cc(C(F)F)nc2c1CN(C(=O)CC1CN(c3cncnc3)C1)C2` [Example 34, 1-[2-(difluoromethyl)-4-methyl-5,7-dihydro-6H-pyrrolo[3,4-b]pyridin-6-yl]-2-[1-(pyrimidin-5-yl)azetidin-3-yl]ethanone], the Emax was determined as 86% and the pEC50 was 7.74.

Take `Cc1nc2c(c(C)c1C)CN(C(=O)CC1CN(c3ccncn3)C1)C2` [Example 35, 2-[1-(pyrimidin-4-yl)azetidin-3-yl]-1-(2,3,4-trimethyl-5,7-dihydro-6H-pyrrolo[3,4-b]pyridin-6-yl)ethanone]: the Emax came to 87.9% and the pEC50 was 8.59.

In the case of `Cc1nc2c(c(C)c1C)CN(C(=O)OC1CN(c3cccnc3)C1)C2` [Example 36, 1-(pyridin-3-yl)azetidin-3-yl 2,3,4-trimethyl-5,7-dihydro-6H-pyrrolo[3,4-b]pyridine-6-carboxylate], the Emax was found to be 93% and the pEC50 is 7.98.

Turning to `Cc1nc2c(c(C)c1Cl)CN(C(=O)CC1CN(c3ccncn3)C1)C2` [Example 39, 1-(3-chloro-2,4-dimethyl-5,7-dihydro-6H-pyrrolo[3,4-b]pyridin-6-yl)-2-[1-(pyrimidin-4-yl)azetidin-3-yl]ethanone], the Emax is 96.4% and the pEC50 was more than 8.86.

With `COCc1nc2c(c(C)c1C)CN(C(=O)CC1CN(c3cncnc3)C1)C2` [Example 40, 1-[2-(methoxymethyl)-3,4-dimethyl-5,7-dihydro-6H-pyrrolo[3,4-b]pyridin-6-yl]-2-[1-(pyrimidin-5-yl)azetidin-3-yl]ethanone], the Emax was determined as 97.9% and the pEC50 is 7.63.

As for `CCNc1nccc(N2CC(CC(=O)N3Cc4nc(C)cc(C)c4C3)C2)n1` [Example 41, 1-(2,4-dimethyl-5,7-dihydro-6H-pyrrolo[3,4-b]pyridin-6-yl)-2-{1-[2-(ethylamino)pyrimidin-4-yl]azetidin-3-yl}ethanone], the Emax worked out at 95.6% and the pEC50 was 8.13.

With `Cc1cc(C)c2c(n1)CN(C(=O)CC1CN(c3cc(NC(C)C)ncn3)C1)C2` [Example 42, 1-(2,4-dimethyl-5,7-dihydro-6H-pyrrolo[3,4-b]pyridin-6-yl)-2-{1-[6-(propan-2-ylamino)pyrimidin-4-yl]azetidin-3-yl}ethanone], the Emax came to 93.9% and the pEC50 was 8.30.

In the case of `Cc1cc(C)c2c(n1)CN(C(=O)CC1CN(c3ccc4nc(C)cn4n3)C1)C2` [Example 43, 1-(2,4-dimethyl-5,7-dihydro-6H-pyrrolo[3,4-b]pyridin-6-yl)-2-[1-(2-methylimidazo[1,2-b]pyridazin-6-yl)azetidin-3-yl]ethanone], the Emax is 88.6% and the pEC50 is 7.60.

As for `Cc1nc2c(c(C)c1Cl)CN(C(=O)CC1CN(c3nncs3)C1)C2` [Example 44, 1-(3-chloro-2,4-dimethyl-5,7-dihydro-6H-pyrrolo[3,4-b]pyridin-6-yl)-2-[1-(1,3,4-thiadiazol-2-yl)azetidin-3-yl]ethanone], the Emax was found to be 112% and the pEC50 is 7.77.

For `Cc1cc(C(F)F)nc2c1CN(C(=O)CC1CN(c3ccnc(C(F)F)c3)C1)C2` [Example 45, 1-[2-(difluoromethyl)-4-methyl-5,7-dihydro-6H-pyrrolo[3,4-b]pyridin-6-yl]-2-{1-[2-(difluoromethyl)pyridin-4-yl]azetidin-3-yl}ethanone], the Emax turned out to be 93.5% and the pEC50 was 7.81.

In the case of `Cc1nc2c(c(C)c1C)CN(C(=O)CC1CN(c3ccnc(C(F)F)c3)C1)C2` [Example 46, 2-{1-[2-(difluoromethyl)pyridin-4-yl]azetidin-3-yl}-1-(2,3,4-trimethyl-5,7-dihydro-6H-pyrrolo[3,4-b]pyridin-6-yl)ethanone], the Emax was 106% and the pEC50 was 8.02.

In the case of `COCc1nc2c(c(C)c1Cl)CN(C(=O)CC1CN(c3ccnc(C(F)F)c3)C1)C2` [Example 47, 1-[3-chloro-2-(methoxymethyl)-4-methyl-5,7-dihydro-6H-pyrrolo[3,4-b]pyridin-6-yl]-2-{1-[2-(difluoromethyl)pyridin-4-yl]azetidin-3-yl}ethanone], the Emax is 110% and the negative logarithm of the EC50 (pEC50) was 8.66.

Turning to `COCc1nc2c(c(C)c1Cl)CN(C(=O)CC1CN(c3cccnc3)C1)C2` [Example 48, 1-[3-chloro-2-(methoxymethyl)-4-methyl-5,7-dihydro-6H-pyrrolo[3,4-b]pyridin-6-yl]-2-[1-(pyridin-3-yl)azetidin-3-yl]ethanone], the Emax was 105% and the pEC50 is 8.52.

Turning to `COCc1nc2c(c(C)c1Cl)CN(C(=O)CC1CN(c3ccc(F)nc3)C1)C2` [Example 49, 1-[3-chloro-2-(methoxymethyl)-4-methyl-5,7-dihydro-6H-pyrrolo[3,4-b]pyridin-6-yl]-2-[1-(6-fluoropyridin-3-yl)azetidin-3-yl]ethanone], the Emax turned out to be 101% and the pEC50 is 7.95.

(Values after US11905284B2, “5,7-dihydro-pyrrolo-pyridine derivatives” (PFIZER INC., priority 2016, dated 2024).)
